According to the NIST ThermoML archive (doi:10.1016/j.jct.2004.11.017):
Numbers after ± are expanded uncertainties.

What was measured:
[1] = 101 kPa, Liquid
[2] = xn = mol fraction of the nth substance listed; conditions: 101 kPa, Liquid, x2 = 0

| SMILES | mass density ([1]; 298.15 K) | mass density ([1]; 303.15 K) | mass density ([1]; 308.15 K) | mass density ([1]; 313.15 K) | mass density ([1]; 318.15 K) | mass density ([1]; 323.15 K) | mass density ([1]; 328.15 K) | mass density ([1]; 333.15 K) | mass density ([1]; 338.15 K) | mass density ([1]; 343.15 K) | mass density ([2]; 298.15 K) | mass density ([2]; 303.15 K) | mass density ([2]; 308.15 K) | mass density ([2]; 313.15 K) | mass density ([2]; 318.15 K) | mass density ([2]; 323.15 K) | mass density ([2]; 328.15 K) | mass density ([2]; 333.15 K) | mass density ([2]; 338.15 K) | mass density ([2]; 343.15 K) |
| --- | --- | --- | --- | --- | --- | --- | --- | --- | --- | --- | --- | --- | --- | --- | --- | --- | --- | --- | --- | --- |
| CC[S+]([O-])CC [diethyl sulfoxide] | 1010.2 ± 1.4 kg/m3 | 1005.8 ± 1.4 kg/m3 | 1001.4 ± 1.3 kg/m3 | 997 ± 1.3 kg/m3 | 992.6 ± 1.4 kg/m3 | 988.2 ± 1.5 kg/m3 | 983.9 ± 1.5 kg/m3 | 979.5 ± 1.6 kg/m3 | 975.1 ± 1.7 kg/m3 | 970.6 ± 1.8 kg/m3 |  |  |  |  |  |  |  |  |  |  |
| O [water] + CC[S+]([O-])CC |  |  |  |  |  |  |  |  |  |  | 996.6 ± 1.3 kg/m3 | 995.2 ± 1.4 kg/m3 | 993.6 ± 1.4 kg/m3 | 991.9 ± 1.4 kg/m3 | 989.7 ± 1.4 kg/m3 | 987.6 ± 1.5 kg/m3 | 985.3 ± 1.5 kg/m3 | 982.8 ± 1.6 kg/m3 | 979.3 ± 1.6 kg/m3 | 977.5 ± 1.6 kg/m3 |
